Data on 13 molecules can be found in US20140377365A1, “SUSTAINED-RELEASE FORMULATION OF ROTIGOTINE” (MAP Pharmaceuticals, Inc., priority 2013, published 2014).

A short description of the data set: In situ rotigotine salt screening (precipitate formation in ethanol/HFA 227 solution formulation). It counts as physicochemical. The settings on record: for Observation, 1 week at 5° C. / Observation, Immediate / Observation, 1 week at RT: 1 mg/mL rotigotine free base plus acid in 10% (w/w) ethanol in HFA 227; for Observation, 1 week at 5° C.: another week at 5° C. after 1 week at RT; for Observation, Immediate: immediately upon preparation; for Observation, 1 week at RT: stored 1 week at room temperature. The method, then: Rotigotine, bulk drug substance, was purchased from Chemagis (Perrigo API). A stock solution of rotigotine was prepared by dissolving rotigotine particles in ethanol at 10 mg/mL. With 1.5 mL rotigotine stock solution added to formulation bottles, each formulation bottle contained 15 mg rotigotine. For preparation of acid stock solutions, it was assumed that complete reaction or ion-pairing between rotigotine and acid. Based on the molecular weight and number of anions of each acid as listed in Table 1, acids stock solutions were prepared by dissolving the required amount in ethanol.
Each formulation bottle was filed with 1.5 mL of rotigotine stock solution and 1.0 ml, of acid stock solution. The formulation bottles (PET bottles) were then sealed with continuous valves and vortexed for 30 seconds to mix the solution well. Finally, 17.6 g of 1,1,1,2,3,3,3-heptafluoropropane (HFA227 (Mexichem)) to make a final volume of 15 mL of rotigotine formulation. All the bottles were hand shaken for 10 seconds.
All in situ salt screening samples were made as 1 mg/mL of rotigtine free base in 10% (w/w) ethanol in HFA 227. Acids corresponding to the salt forms in Table 1 were added according to the molar ratio with rotigotine for complete reaction. As 1 mg/mL was the minimal required dose at the time of experiment, all formulations were tested at this level to screen out non-solution salt formulations.
These were the rotigotine citrate, fumarate, succinate, sulfate, tartrate, xinafoate salt formulations. […] rotigotine salt formulations were immediately ruled out as the precipitate formation was not desired. All clear solution samples were stored at room temperature (RT) for 1 week. […] These were rotigotine acetate, benzoate and mesylate salt formulations. These 3 rotigotine salt formulations were also ruled out as precipitate formation is not desired. The rest of the samples remained as clear solutions (stable) at after another week at 5° C.

As for rotigotine propionate, the “Observation, 1 week at 5° C.” value was “solution”; the “Observation, Immediate” value is “solution”; the “Observation, 1 week at RT” value is given as “solution”.
In the case of rotigotine maleate, the “Observation, 1 week at 5° C.” value was “solution”; the “Observation, Immediate” value is “solution”; the “Observation, 1 week at RT” value is on record as “solution”. Further, the “Solution formulation at the minimum required concentration” value (1 mg/mL, 10% (w/w) ethanol in HFA 227) is reported as “stayed in solution”.
On to Tartrate, for which the “Observation, Immediate” value is “white precipitate”.
Regarding Benzoate, the “Observation, Immediate” value was “solution” and the “Observation, 1 week at RT” value was “red precipitate”.
As to rotigotine stearate, the “Observation, 1 week at 5° C.” value is listed as “solution”; the “Observation, Immediate” value is “solution”; the “Observation, 1 week at RT” value is given as “solution”.
As to rotigotine pamoate, the “Observation, 1 week at 5° C.” value is given as “solution”; the “Observation, Immediate” value is reported as “solution”; the “Observation, 1 week at RT” value is “solution”.
Regarding rotigotine glycolate, the “Observation, 1 week at 5° C.” value is given as “solution”; the “Observation, Immediate” value is on record as “solution”; the “Observation, 1 week at RT” value is listed as “solution”.
In the case of `CC(O)C(=O)O.CCCN(CCc1cccs1)[C@H]1CCc2c(O)cccc2C1` [Lactate, rotigotine lactate], the “Observation, 1 week at 5° C.” value is reported as “solution”; the “Observation, Immediate” value is on record as “solution”; the “Observation, 1 week at RT” value is given as “solution”.
As for rotigotine citrate, the “Observation, Immediate” value is listed as “white precipitate”.
Regarding Fumarate, the “Observation, Immediate” value was “white precipitate”.
In the case of rotigotine palmitate, the “Observation, 1 week at 5° C.” value is given as “solution”; the “Observation, Immediate” value is recorded as “solution”; the “Observation, 1 week at RT” value is “solution”.
On to `O=S(=O)(O)O` [Sulfate], for which the “Observation, Immediate” value is listed as “white precipitate”.
For the molecule `CC(=O)O.CCCN(CCc1cccs1)[C@H]1CCc2c(O)cccc2C1` [Acetate, rotigotine acetate], the “Observation, Immediate” value is reported as “solution” and the “Observation, 1 week at RT” value is given as “red precipitate”.
